Consider 1 compound from publication PMC7355430, “Imunofan—RDKVYR Peptide—Stimulates Skin Cell Proliferation and Promotes Tissue Repair” (Molecules, 2020).

Holding throughout (format): cell-based, human
In one data set the test system is ASCs from donor 6. In words: RNA sequencing with ingenuity pathway analysis (IPA). The note with it: ASCs donor 6, 0.1 µg/mL IM. As to the method: Cell stimulation was performed as previously described. Primary fibroblasts after the third passage and ASCs after the second passage were cultured in appropriate DMEM medium supplemented with 10% FBS for 24 h. Then, the medium was changed for DMEM with 5% FBS and 24-h incubation was performed. After another medium change for serum-free, cells were stimulated with IM peptide (0.1 µg/mL) for 48 h. Cell cultures deprived of FBS for 48 h were used as a control. After stimulation, the cells were trypsinized, collected, and centrifuged, and the pellet was kept frozen (−80 °C) for transcriptome analysis and transcript level analysis.
For three plastic surgery donors (donor 6, donor 11, and donor 12) ASCs (3–4.5 × 10^5 cells) after passage P2, namely cultures stimulated for 48 h with 0.1 µg/mL IM, or control cultured with FBS-deprived medium, were trypsinized, washed, and snap frozen for transcriptome analysis (see Supplementary Table S5 for clinical information). The pellets were stored at −80 °C prior to RNA isolation. RNA was isolated using a miRNeasy Mini Kit (Qiagen, Hilden, Germany) with two modifications of the original protocol: (i) chloroform was substituted with 1-bromo-3-chloropropane to prevent foaming and emulsification, and (ii) the elution was done with 40 µl of water followed by another elution with the entire volume of the original eluate. The quality and concentration of RNA was assessed using a Bioanalyzer 2100 Instrument and RNA 6000 Nano Kit (Agilent, Waldbronn, Germany). The average RNA yield was 2 µg. Samples with RIN (RNA Integrity Number) >8.0 were used for further transcriptome analysis.
A ribosome reduction kit (Arraystar Inc, Rockville, MD, USA) and SureSelect Strand Specific mRNA library kit (Agilent, Santa Clara, CA, USA) were used for next generation sequencing (NGS) library preparation according to standard procedures. The cDNA libraries were quantitated using qPCR in a Roche LightCycler 480 with the Kapa Library Quantification Kit for Illumina platforms (Kapa Biosystems, Woburn, MA, USA). Onboard cluster generation and 50 nt paired end RNA sequencing were performed on an Illumina HiSeq2500 device using Rapid Run v2 sequencing chemistry and flow cells as recommended by the manufacturer (Illumina Inc., San Diego, CA, USA). Paired end 50 bp sequencing runs were completed and the data was converted to the FASTQ Sanger format. Trim Galore was used to remove residual adapter sequences from the reads (https://www.bioinformatics.babraham.ac.uk). Sequencing reads were aligned to the human reference genome assembly (hg19) using TopHat. Further analysis was performed according to workflow for Cufflinks version 2.2.0 and higher. Transcript assembly and estimation of the relative abundances were carried out with Cufflinks using the following settings: Quartile normalization method for the libraries, blind dispersion method for replicates, and biased correction using canonical hg19 as reference. Cuffmerge and Cuffquant were then performed, followed by final comparison analysis in Cuffdiff. […] Differentially expressed genes (DGE) were grouped in functional pathways using ingenuity pathway analysis (IPA Spring Release 2017, QIAGEN, Hilde, Germany) on a gene level, using RefSeq annotation.

In another data set the test system is CTL, Th and NK cells. Put plainly: Immune cell activation in PBMCs, flow cytometry. The note with it: 0.1 and 1.0 µg/mL, 48 h, 5 independent experiments. As to the method:
Immunological tests were conducted on human peripheral blood mononuclear cells, isolated from “buffy coats” using a ficoll density gradient (Histopaque, Sigma-Aldrich, St. Louis, MO, USA). Buffy coats for were obtained from blood of healthy anonymous donors of the Regional Center of Blood Donation and Blood Therapy in Gdansk, Poland. After washing in PBS, erythrocyte lysis, and cell counting (cell counter, Bio-Rad), the PBMCs were seeded onto a 24-well culture plate at a density of 10^6 cells/1 mL of RPMI 1640 (Penicillin/Streptomycin, 10% FBS) per well. After cell resting for 24 h, cells were stimulated with IM peptide (0.1 µg/mL and 1.0 µg/mL) for the next 48 h under appropriate conditions (37 °C, 5% CO2). The untreated cells were used as a negative control, whereas cells stimulated with LPS (1 µg/mL) and PHA (2.5 µg/mL) were a positive control. After incubation, the PBMCs were collected, washed with PBS, counted and prepared for flow cytometry analysis. 10^4 cells/100 µl were stained with monoclonal, fluorochrome-conjugated antibodies (anti-CD3, -CD4, -CD8, -CD16, -CD56, -CD25, -CD69, -CD71, -HLA-DR, -CD11c, -CD80, and -CD83) and incubated for 30 min in RT in the dark. Stained cells were analyzed using a flow cytometer (LSRFortessa, BD, USA). All data are presented as percentages due to the application of hospital diagnostic laboratory standards for immune cells analyses.
In general terms: In flow cytometry, cells or beads pass a laser one at a time.

In data set [1] the test system is adipose-derived stem cells (ASCs). Put plainly: LDH cytotoxicity assay. The note with it: 50–150 µg/mL, 48 h, serum-free medium; n=12 (Figure S5). As to the method:
Cell death was quantified by measurement of lactate dehydrogenase activity in cell culture supernatants (Takara, Japan, cat. No. MK401), following the manufacturer’s instructions. Cells were seeded into 96-well plates (BD, cat.no. 353872), at a density of 5000 cells per well, in medium (DMEM) supplemented with 10% FBS. After 24 h, the medium was changed to serum-free medium containing appropriate concentrations of IM peptide. After 48 h of stimulation supernatants were collected for LDH analysis. Cell death was normalized with respect to untreated control (without IM). Non-IM treated cells were used as negative control (0%) and Triton-X 100 (1%) was used as the positive control for maximum LDH release (maximum cytotoxicity, 100%). The assay was performed to IM in concentrations of 50–150 µg/mL.

In another data set the test system is basophils. Put plainly: Basophil activation test (BAT). The note with it: 0.1 µg/mL, whole blood of healthy volunteers, Flow CAST highsens; cut-off 5%; 7 independent experiments. As to the method: The commercially available test Flow CAST® highsens (Bühlmann Laboratories, Schönenbuch, Switzerland) was used to perform BAT test on blood samples collected from healthy volunteers, who were not suffering from allergy, within 24 h of collection, according to the manufacturer’s protocol. Then, 100 µL of blood was incubated and IM peptide was added to the wells at a final concentration of 0.1 µg/mL. The cells were then stained with fluorochrome-stained monoclonal antibodies (anti-CD63, -CD203c, -CCR3) and incubated for 15 min at 37 °C. Then, erythrocyte lysis was performed, the cells were washed and analyzed by flow cytometry (BD FACSCanto II, San Jose, CA, USA). Each sample was accompanied by its own negative and positive control (anti-FcεRI mAb and fMLP).

The mark [2] stands for this setting: 48 h vs FBS-deprived medium, IPA disease and function mode.

Each structure is given as a SMILES string. Peptide text beside a SMILES is read from it.

As to `CC(C)[C@H](NC(=O)[C@H](CCCCN)NC(=O)[C@H](CC(=O)O)NC(=O)[C@@H](N)CCCNC(=N)N)C(=O)N[C@@H](Cc1ccc(O)cc1)C(=O)N[C@@H](CCCNC(=N)N)C(=O)O` [IM, H-Arg-Asp-Lys-Val-Tyr-Arg-OH] (H-RDKVYR-OH), the “consistency score of the IPA regulatory network” value in the data set on ASCs from donor 6 (48 h, highest consistency score (Figure S10A)) is given as 29.69. Moreover, in the data set on ASCs from donor 6 (setting [2]), the “Predicted Direction of Change: Activation of cells” value is given as “Activation”, the “Predicted Direction of Change: Binding of neutrophils” value is given as “Activation”, the “Predicted Direction of Change: Cell migration of granulocytes” value is reported as “Activation” and the “Predicted Direction of Change: Cell migration of neutrophils” value is “Activation”. In addition, in the data set with ASCs from donor 6 (setting [2]), the “Predicted Direction of Change: Cell movements” value was “Activation”, the “Predicted Direction of Change: Chemotaxis” value was “Activation”, the “Predicted Direction of Change: Immune response” value is “Activation” and the “Predicted Direction of Change: Migration of cells” value was “Activation”. Moreover, in the data set with ASCs from donor 6 (setting [2]), the “Predicted Direction of Change: Migration of endothelium cells” value is recorded as “Activation”, the “Predicted Direction of Change: Permeability of endothelium cells” value was “Activation”, the “Predicted Direction of Change: RNA transactivation” value is given as “Activation” and the “Predicted Direction of Change: Secretion of lipids” value was “Activation”. In the data set with ASCs from donor 6 (setting [2]), the “Predicted Direction of Change: Synthesis of fatty acids” value is listed as “Activation” and the “Predicted Direction of Change: Synthesis of nitric oxide” value is listed as “Activation”. Moreover, in the data set with CTL, Th and NK cells, the “immunogenic properties (activation of CTL, Th, NK)” value is on record as “no immunogenic properties”. Moreover, the “cytotoxicity (LDH release)” value in data set [1] is on record as “not cytotoxic”. Moreover, the “level of degranulated cells (basophil activation)” value with basophils is given as “below 5%”.
